Read-outs that look alike come from different tables or passages of the source.
Assays:
[1] = target: NS3/NS4 complexes (Hepatitis C virus genotype 1a, UniProt P27958); test: NS3/NS4 inhibition activity (IC50); format: biochemical
Summary of the method: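 Buffer: 50 mM Tris-HCl (pH 7.5), 10 mM DTT, 25 μM NS4A peptide, 0.6 mM LDAO and 15% glycerol. Assays were run at 23 °C with preformed NS3/NS4 complex, and the compound concentration giving inhibition was derived as an IC50.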

[2] = tested on: hepatitis C replicon; test: hepatitis C replicon EC50; format: cell-based; details: Hepatitis C virus; Table 3; hepatitis C replicon; read-out: EC50
Excerpt: NS3-NS4 inhibition activity can be determined using known assay methods.

[3] = tested on: hepatitis C virus (HCV RNA levels), chronic hepatitis C genotype 1; test: ITMN-191 monotherapy, 14 days, effect on HCV viral load in patients; format: in vivo; details: for median reduction in HCV RNA levels at end of treatment (EOT) (Day 14): sodium salt oral
Procedure: The study was designed to provide the plasma pharmacokinetics (PK) of multiple ascending daily oral doses of ITMN-191 monotherapy and to evaluate the viral kinetics (VK) of multiple ascending daily oral doses of ITMN-191 monotherapy in patients, as measured by changes from Baseline in hepatitis C virus ribonucleic acid (HCV RNA) levels. The ITMN-191 was administered in the form of its sodium salt.
In Part A and Part B, up to six cohorts (treatment arms) of 10 patients each were planned. In Part A, up to five cohorts of 10 treatment-naïve patients per cohort were planned to receive multiple ascending doses of study drug. Patients within each of the five cohorts were randomly assigned 8:2 to receive either ITMN-191 or placebo for 14 days. In Part B, one cohort of non-responder (NR) patients (Cohort 6) was planned to receive a single dose level of study drug for 14 days. Patients in Cohort 6 were randomly assigned 8:2 to receive either ITMN-191 (8 patients) or placebo (2 patients).
The treatment period consisted of 14 days of blinded study drug. In Part A, optional Standard of Care (SOC) consisting of PEG-IFN-α plus ribivarin (RBV) therapy was provided to treatment-naïve patients 24 hours after the last dose on Day 14. In Part B, NR patients were not permitted to start any additional HCV therapy before Day 44.
Efficacy was evaluated by log10 reductions in HCV RNA levels and reductions in ALT values using the Efficacy-Evaluable Population, defined as those patients who received at least 90% of prescribed doses of assigned blinded study drug. Three patients in the treatment-naive 200 mg q12h cohort received less than the assigned randomized dose and were excluded from all efficacy analyses. The HCV RNA levels were determined by Roche COBAS Taqman HCV/HPS test, v2.0. This is a reverse transcriptase PCR method.
In Parts A and B, rebound, plateau, and continuous decline of virologic response profiles were defined based on the HCV RNA level at end of treatment (EOT) relative to the nadir HCV RNA level. […] The frequency of rebound for treatment-naïve patients (Part A) was higher in the 100 mg […] treatment arm (4 patients) than in the higher dose treatment arms (2 to 3 patients). The frequency of rebound for NR patients (Part B) was the same (2 patients) as for the treatment-naïve patients in the 100 mg q8h treatment arm. However, there were no statistically significant differences in ITMN-191 AUC, Cmax, or Cτ between rebound, plateau, and continual decline groups. At EOT, every patient classified as experiencing virologic rebound carried NS3 variants in which arginine at amino acid position 155 was replaced, at least in part, by lysine.

[4] = tested on: hepatitis C virus (HCV RNA levels), chronic hepatitis C genotype 1; test: ITMN-191 combination therapy with SOC (PEG-IFN alfa-2a and ribavirin), 14 days, effect on HCV viral load in patients; format: in vivo; details: for HCV RNA (<43 IU/mL) (%): after 14 days of treatment; for median change in HCV RNA from baseline: 14 days of triple combination therapy
Excerpt: This is a double-blind, placebo-controlled, multicenter study in treatment-naïve patients with chronic hepatitis C genotype 1 infection. All patients receive standard of care (SOC) treatment with PEG-IFN alfa-2a and weight-based ribavirin in accordance with the product labeling. In addition to this standard of care treatment, patients are randomized to receive either ITMN-191 or matching placebo, administered in the fed state, for 14 complete days, and a single dose on Day 15. PEG-IFN alfa-2a and ribavirin is provided from Day 0 and following the completion of study drug treatment on Day 15 through Day 44. No other HCV therapies are permitted prior to Day 44. All patients receive SOC and then are administered a pill containing either ITMN-191 or placebo. The ITMN-191 was administered in the form of its sodium salt.
Patients are admitted to a research facility and initiate PEG-IFN alfa-2a and ribavirin on Day O, Study drug (ITMN-191 or placebo) administration begins on Day 1 and continues to the morning of Day 15, and patients are discharged from the research facility on Day 16. Meals and activity levels are standardized across research facilities. Patients are contacted by telephone on Day 21 and return to the research facility for the Safety Follow-up Visit on Day 28 and the End of Study Visit on Day 44.
Over the course of the study, blood samples are obtained for clinical laboratory analysis and for PK (pharmokinetics) and VK (viral kinetics). In addition, blood samples to assess VR (viral rebound) are obtained. To monitor potential cardiac toxicity, cardiac troponin are assessed every day during the treatment period.
End of treatment (EOT) and nadir HCV RNA levels were used to define virologic rebound, continual decline, and plateau response patterns. NS3 protease domain was amplified and population sequenced by nested reverse transcription polymerase chain reaction (RT-PCR). Amplicons were cloned into a novel NS3 phenotyping vector and this plasmid used for clonal sequencing. The HCV RNA levels were determined by Roche COBAS Taqman HCV/HPS test, v2.0. This is a reverse transcriptase PCR method.

[5] = NR (nonresponder) patients, 300 mg q8h, 14 days
[6] = all ITMN-191 treated patients, Parts A and B, monotherapy 14 days
[7] = treatment-naïve patients, 200 mg q8h, 14 days
[8] = treatment-naïve patients, 200 mg q12h, 14 days
[9] = any combination therapy cohort, 14 days

Chain of NS3/NS4 complexes (P27958 1027-1657): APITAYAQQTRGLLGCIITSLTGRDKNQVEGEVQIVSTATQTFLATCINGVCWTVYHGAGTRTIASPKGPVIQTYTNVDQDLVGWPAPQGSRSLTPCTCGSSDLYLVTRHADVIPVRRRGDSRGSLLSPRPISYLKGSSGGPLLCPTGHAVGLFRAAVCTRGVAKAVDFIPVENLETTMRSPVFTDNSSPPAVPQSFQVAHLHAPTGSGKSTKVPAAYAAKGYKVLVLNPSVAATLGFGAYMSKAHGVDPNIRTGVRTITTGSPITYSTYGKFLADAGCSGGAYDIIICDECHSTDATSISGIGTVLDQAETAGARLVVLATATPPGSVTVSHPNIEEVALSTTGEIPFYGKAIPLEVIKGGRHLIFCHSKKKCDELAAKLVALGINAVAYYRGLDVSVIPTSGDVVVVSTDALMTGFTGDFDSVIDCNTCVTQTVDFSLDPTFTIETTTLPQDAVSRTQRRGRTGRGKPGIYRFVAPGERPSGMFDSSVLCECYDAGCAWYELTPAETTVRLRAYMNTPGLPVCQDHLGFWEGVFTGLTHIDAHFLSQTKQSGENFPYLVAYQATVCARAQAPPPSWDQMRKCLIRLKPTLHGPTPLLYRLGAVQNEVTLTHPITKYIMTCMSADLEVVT
Chain of NS3/NS4 complexes (P27958 1658-1711): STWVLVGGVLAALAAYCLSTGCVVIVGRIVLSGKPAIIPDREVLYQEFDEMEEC

## CN(C)S(=O)(=O)NC(=O)[C@@]12C[C@H]1/C=C\CCCCC[C@H](NC(=O)OC(C)(C)C)C(=O)N1C[C@H](Oc3nc4ccccc4n3COCC[Si](C)(C)C)C[C@H]1C(=O)N2 [Compound 1143]
[1]; IC50, Table 3
  IC50: < 10 nM
[2]
  EC50: > 100 nM

## CN(C)S(=O)(=O)NC(=O)[C@@]12C[C@H]1/C=C\CCCCC[C@H](NC(=O)OC(C)(C)C)C(=O)N1C[C@H](Oc3nc4ccccc4[nH]3)C[C@H]1C(=O)N2 [Compound 1144]
[1]; Table 3, read-out: IC50
  IC50: < 10 nM
[2]
  EC50: > 100 nM

## CC(C)(C)OC(=O)N[C@H]1CCCCC/C=C\[C@@H]2C[C@@]2(C(=O)NS(=O)(=O)C2CC2)NC(=O)[C@@H]2C[C@@H](OC(=O)N3Cc4cccc(F)c4C3)CN2C1=O [ITMN-191]
[3]; [5]
  median ALT decline from Baseline at EOT: −34.5 U/L
  median maximum reduction in HCV RNA levels: −2.93 log10 IU/mL
  median reduction in HCV RNA at EOT: −2.46 log10 IU/mL
[3]; NR patients (Part B)
  frequency of rebound: 2 patients
[3]; [6]
  patients experiencing continual decline in HCV RNA level: 14/40
  patients experiencing plateau: 12/40
[3]; single NR cohort (Part B), 300 mg q12h dose as printed in the conclusions
  median maximum post-Baseline change in HCV RNA: −2.93 log10 IU/mL
[3]; treatment-naïve patients, 100 mg q2h treatment arm
  frequency of rebound: 4 patients
[3]; treatment-naïve patients, 100 mg q8h treatment arm
  frequency of rebound: 2 patients
[3]; [7]
  median EOT reduction of ALT: −37.5 U/L
  median maximum reduction in HCV RNA levels: −3.90 log10 IU/mL
  median reduction in HCV RNA levels at end of treatment (EOT) (Day 14): −3.76 log10 IU/mL
[3]; [8]
  median maximum reduction in HCV RNA levels: −3.17 log10 IU/mL
  median reduction in HCV RNA levels at end of treatment (EOT) (Day 14): −3.12 log10 IU/mL
[4]; 100 mg q8h (300 mg) and SOC
  HCV RNA (<43 IU/mL) (%): 75%
[4]; 100 mg q8h (300 mg) in combination with SOC, 14 days
  Median Change Log10 (IU/mL) HCV RNA at EOT: −5.5 Log10 (IU/mL)
[4]; 200 mg q8h (600 mg) and SOC
  HCV RNA (<43 IU/mL) (%): 88%
[4]; 200 mg q8h (600 mg) in combination with SOC, 14 days
  Median Change Log10 (IU/mL) HCV RNA at EOT: −5.7 Log10 (IU/mL)
[4]; 300 mg q8h (900 mg) in combination with SOC, 14 days
  Median Change Log10 (IU/mL) HCV RNA at EOT: −5.6 Log10 (IU/mL)
[4]; 400 mg q12h (800 mg) in combination with SOC, 14 days
  Median Change Log10 (IU/mL) HCV RNA at EOT: −4.7 Log10 (IU/mL)
[4]; 600 mg q12h (1200 mg) in combination with SOC, 14 days
  Median Change Log10 (IU/mL) HCV RNA at EOT: −5.4 Log10 (IU/mL)
[4]; 900 mg q12h (1800 mg) in combination with SOC, 14 days
  Median Change Log10 (IU/mL) HCV RNA at EOT: −5.5 Log10 (IU/mL)
[4]; all doses and intervals (32 of 45 patients), combination with SOC, 14 days
  patients with HCV RNA below the limit of quantification (<25 IU/mL): 71%
[4]; [9]
  patients with HCV RNA levels below 9.3 IU/mL: at least 13%
  patients with HCV RNA levels below 25 IU/mL: at least 57%
[4]; best performing q8h cohort
  median change in HCV RNA from baseline: −5.7 log
[4]; best performing q12h cohort
  median change in HCV RNA from baseline: −5.5 log
[4]; five of the six cohorts
  median change in HCV RNA from baseline: exceeded 5 logs

— patent publication US8048862B2, “Macrocyclic inhibitors of hepatitis C virus replication” (priority 2008, dated 2011)
